Assay results: patent US9573972B2, “Nurotoxic sterol glycosides” (priority 2008, dated 2017)

Assays:
male CD-1 mice = assay: Wire hang test, SG-fed mice; format: in vivo, mouse
From the text: Five-month old male CD-1 mice (30.1-35.7 g, 7.5 cm-8.8 cm) were purchased from Charles River (Wilmington, Mass.). Adult mice were chosen to mimic the mean age of onset of ALS-PDC (Kurland, L. T. (1988a) Trends Neurosci. 11, 51-4; Kurland, L. T., et al. (1994) Amyotrophic lateral sclerosis-parkinsonism-dementia complex on Guam: epidemiologic and etiological perspectives. 109-131). Thirty mice for the SG study were randomly divided into 2 groups (14 control and 16 experimental animals). All animals were housed singly in a virus-free barrier facility in a room maintained at 22° C. under a 12 hour light/dark cycle. The mice were provided ad libitum access to food and water.
The synthetic SG was mixed with finely ground Purina Chow mouse pellets (Mouse Diet™, Purina) to create the experimental pellets with a SG content of 1000 μg per pellet. Dry materials were blended with a sterile silicon spatula. For every 5 g of standard feed, 2.5 mL of doubly-distilled water (dd)H2O was added and the dough was kneaded and round up into pellets. A single sterol glucoside containing pellet was placed in the feeding tray each morning before the addition of regular mouse chow (ad libitum). All experimental pellets were entirely consumed by the mice each day. Control mice were fed standard mouse chow pellets of identical weight with no additives. SG feeding was conducted daily for 15 weeks and mice were behaviorally monitored until sacrifice at 35 weeks (time point 1) or 52 weeks (time point 2).
Wire hang: Neuromuscular strength was tested by the wire hang (or hanging wire) test (Wilson, J., et al. (2003d) Neuromolecular Med. 3, 105-18; Wilson, J. M., et al. (2004c) Neuroimage. 23, 336-43; Wilson, J. M., et al. (2005) Soc Neurosci. Abstr. online; Tabata, R. C., et al. (2008) Neuromolecular Med. 10, 24-39). Both balance and grip strength are required for a mouse to keep its body suspended (Crawley, 2000). […] The latency to fall off the wire (maximum 60 seconds) (Sango et al., 1996) was measured from the moment the wire apparatus was inverted (180°). […]

[1] = test system: Ionized calcium-binding adaptor molecule-1 (microglia); assay: Anti-IBA-1 immunofluorescence, microglia counts; format: in vivo, mouse; details: SG-fed group over time (35 to 52 wk)
Description: Tissue-mounted slides were processed for fluorescence microscopy as follows: Sections were rinsed in coplin jars for 45 minutes at room temperature (RT) in three changes of PBS. Sections were then incubated at RT for 30 minutes in a blocking permeabilization solution made of 5% normal goat serum (NGS), 5% normal rabbit serum (NRS) or 5% BlokHen II (Ayes Labs, Inc., Tigard, Oreg.), 0.05% Triton X-100 and PBS. Subsequently, the blocking solution was tipped off and the slides were rinsed in PBS for 2 minutes. […]

`CC[C@H](/C=C/[C@@H](C)[C@H]1CC[C@H]2[C@@H]3CC=C4C[C@@H](O[C@@H]5O[C@H](CO)[C@@H](O)[C@H](O)[C@H]5O)CC[C@]4(C)[C@H]3CC[C@]12C)C(C)C` [SG, Stigmasterol β-D-Glucopyranoside] was tested, and the “Increase in the time between inversion of the apparatus and falling” value (male CD-1 mice; SG fed mice, control group showed an increase) was “did not”, the Wirehang (male CD-1 mice; SG-fed vs control, Time-point 2 (52 wk)) was “Wirehang* (*p < 0.05)” and the Wirehang performance (male CD-1 mice; SG-fed vs control, prior to 35 weeks) was “decline in performance”. The “Anti-IBA-1 immunoreactive cells over time” value [1] was “Anti-IBA-1 immunoreactive cells (SG-fed group over time) (ns)”.
